# Reference: patent publication US9701709B2 (REATA PHARMACEUTICALS, INC., priority 2012, dated 2017)
# Read-outs that look alike come from different tables or passages of the source.
# What was measured:
# [1] = Metabolism in rodent (mouse, rat) liver microsomes; type: in vitro ADME, mice, rats; conditions: 60-min incubation, NADPH and UGT
# CYP2B6 = CYP2B6 (Homo sapiens, UniProt P20813); assay: CYP450 inhibition in pooled human liver microsomes, CYP2B6; type: in vitro ADME; conditions: highest concentration tested (3 μM)
# From the text: (§1) In addition, there was little or no evidence of metabolism-dependent inhibition of any of the enzymes tested.
# [2] = Plasma protein binding (ultracentrifugation), mouse
# [3] = test system: NF-κB in NIH3T3/NF-κB-luc cell line; assay: NF-κB luciferase reporter in NIH3T3/NF-κB-luc; type: cell-based; conditions: Mus musculus
# From the text: (b) TNF-α-induced activation of an NF-κB luciferase reporter in the mouse NIH3T3 cell line.
# NF-κB is a transcription factor that plays a central role in the regulation of many immune and inflammatory responses. […] The NIH3T3/NF-κB-luc cell line maintains a chromosomal integration of a Firefly luciferase reporter construct regulated by eight copies of the NF-κB response element. The effects of these compounds can be quantified by measuring the value of the NF-κB IC50.
# [4] = test system: acute radiation dermatitis; assay: Acute radiation dermatitis in BALB/c mice; type: in vivo, mouse
# [5] = test system: NQO1 enzymatic activity in RAW264.7 mouse macrophage cells; assay: NQO1 enzymatic activity (modified Prochaska assay) in RAW264.7; type: cell-based; conditions: RAW264.7, 24 h
# Description: Consistent with induction of Nrf2 target genes and corresponding protein products, treatment of RAW264.7 mouse macrophage cells for 24 h increased NQO1 enzymatic activity in a dose-dependent manner, with increases evident at 7.8 nM (FIG. 7). NQO1 enzymatic activity was measured by a modified Prochaska assay (Prochaska and Santamaria, Anal Biochem. 169:328-336, 1988, which is incorporated herein by reference).
# CYP2C9 = CYP2C9 (Homo sapiens, UniProt P11712); assay: CYP450 inhibition in pooled human liver microsomes, CYP2C9; type: in vitro ADME; conditions: highest concentration tested (3 μM)
# From the text: as §1
# [6] = Plasma protein binding (ultracentrifugation), human
# [7] = Topical pharmacokinetics in rats; type: in vivo, rat; conditions: 0.01% to 3% suspension in sesame oil
# From the text: The topical administration was formulated as a suspension in sesame oil.
# [8] = test system: LPS-induced pulmonary inflammation; assay: LPS-induced pulmonary inflammation in mice
# [9] = Ocular absorption and distribution in rabbits; type: in vivo, rabbit
# Description: Using rabbits, the ocular absorption and systemic pharmacokinetic behavior of RTA 408 was evaluated. RTA 408 was administered topically to the eye once per day for five days.
# cynomolgus monkeys = conditions: for ALP / ALT / AST / Albumin / BUN / Chol / Cr / Glucose / TG / Tot Bil / Tot Prot: monkey, Day 14
# Sequence of CYP2C9 (P11712 whole entry): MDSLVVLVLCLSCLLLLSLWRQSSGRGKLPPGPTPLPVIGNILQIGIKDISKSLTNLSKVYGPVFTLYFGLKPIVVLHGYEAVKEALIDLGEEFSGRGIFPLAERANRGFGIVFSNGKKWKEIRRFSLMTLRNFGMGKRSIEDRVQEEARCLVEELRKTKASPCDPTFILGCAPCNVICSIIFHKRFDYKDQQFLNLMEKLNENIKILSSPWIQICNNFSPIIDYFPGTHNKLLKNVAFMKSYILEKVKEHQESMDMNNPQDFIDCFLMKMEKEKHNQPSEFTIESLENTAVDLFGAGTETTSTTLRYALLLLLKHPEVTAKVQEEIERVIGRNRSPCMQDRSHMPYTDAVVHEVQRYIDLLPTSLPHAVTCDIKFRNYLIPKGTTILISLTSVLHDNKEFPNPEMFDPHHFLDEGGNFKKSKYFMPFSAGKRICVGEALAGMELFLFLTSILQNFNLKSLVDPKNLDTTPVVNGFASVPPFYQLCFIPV
# Sequence of CYP2B6 (P20813 whole entry): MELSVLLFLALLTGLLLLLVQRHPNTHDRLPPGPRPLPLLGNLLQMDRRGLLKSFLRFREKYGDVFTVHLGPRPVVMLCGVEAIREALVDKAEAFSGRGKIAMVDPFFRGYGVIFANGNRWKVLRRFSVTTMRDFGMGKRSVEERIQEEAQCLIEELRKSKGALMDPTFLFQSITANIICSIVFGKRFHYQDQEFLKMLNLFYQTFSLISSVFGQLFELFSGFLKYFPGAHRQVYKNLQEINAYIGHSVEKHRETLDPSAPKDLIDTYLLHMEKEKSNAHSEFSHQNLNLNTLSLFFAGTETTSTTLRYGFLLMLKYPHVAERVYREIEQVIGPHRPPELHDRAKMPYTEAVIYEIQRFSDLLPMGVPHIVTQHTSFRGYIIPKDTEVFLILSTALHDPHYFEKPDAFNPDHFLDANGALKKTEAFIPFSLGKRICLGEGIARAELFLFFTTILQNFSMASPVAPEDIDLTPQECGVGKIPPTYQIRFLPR
compound,measurement,setting,value
"CC1(C)CC[C@]2(NC(=O)C(C)(F)F)CC[C@]3(C)[C@H](C(=O)C=C4[C@@]5(C)C=C(C#N)C(=O)C(C)(C)[C@@H]5CC[C@]43C)[C@@H]2C1 [RTA 408, N-((4aS,6aR,6bS,8aR,12aS,14aR,14bS)-11-cyano-2,2,6a,6b,9,9,12a-heptamethyl-10,14-dioxo-1,2,3,4,4a,5,6,6a,6b,7,8,8a,9,10,12a,14,14a,14b-octadecahydropicen-4a-yl)-2,2-difluoropropanamide]",Parent molecule remaining,[1],> 65%
same,inhibition at 3 µM,CYP2B6,< 50%
same,fraction unbound,[2],0.07
same,IC50,"[3]; not viability normalized, read-out: NIH3T3/NF-κB IC50",1200 nM
same,IC50,"[3]; viability normalized, read-out: NIH3T3/NF-κB IC50, normalized for viability",1400 nM
same,% animal-days >=2,[4]; oral 3 mg/kg,32.5%
same,% animal-days >=3,[4]; oral 3 mg/kg,1.3%
same,"% mice scored above 3 in clinical dermatitis exam, Day 16",[4]; oral 3 mg/kg,10%
same,"% mice scored above 3 in clinical dermatitis exam, Day 18",[4]; oral 3 mg/kg,10%
same,"% mice scored above 3 in clinical dermatitis exam, Day 20",[4]; oral 3 mg/kg,0%
same,"% mice scored above 3 in clinical dermatitis exam, Day 22",[4]; oral 3 mg/kg,0%
same,"% mice scored above 3 in clinical dermatitis exam, Day 24",[4]; oral 3 mg/kg,0%
same,"% mice scored above 3 in clinical dermatitis exam, Day 26",[4]; oral 3 mg/kg,0%
same,"% mice scored above 3 in clinical dermatitis exam, Day 28",[4]; oral 3 mg/kg,0%
same,% animal-days >=2,[4]; oral 10 mg/kg,33.8%
same,% animal-days >=3,[4]; oral 10 mg/kg,4.1%
same,"% mice scored above 3 in clinical dermatitis exam, Day 16",[4]; oral 10 mg/kg,10%
same,"% mice scored above 3 in clinical dermatitis exam, Day 18",[4]; oral 10 mg/kg,25%
same,"% mice scored above 3 in clinical dermatitis exam, Day 20",[4]; oral 10 mg/kg,30%
same,"% mice scored above 3 in clinical dermatitis exam, Day 22",[4]; oral 10 mg/kg,0%
same,"% mice scored above 3 in clinical dermatitis exam, Day 24",[4]; oral 10 mg/kg,0%
same,"% mice scored above 3 in clinical dermatitis exam, Day 26",[4]; oral 10 mg/kg,0%
same,"% mice scored above 3 in clinical dermatitis exam, Day 28",[4]; oral 10 mg/kg,0%
same,% animal-days >=2,[4]; oral 30 mg/kg,28.8%
same,% animal-days >=3,[4]; oral 30 mg/kg,2.5%
same,"% mice scored above 3 in clinical dermatitis exam, Day 16",[4]; oral 30 mg/kg,10%
same,"% mice scored above 3 in clinical dermatitis exam, Day 18",[4]; oral 30 mg/kg,20%
same,"% mice scored above 3 in clinical dermatitis exam, Day 20",[4]; oral 30 mg/kg,10%
same,"% mice scored above 3 in clinical dermatitis exam, Day 22",[4]; oral 30 mg/kg,0%
same,"% mice scored above 3 in clinical dermatitis exam, Day 24",[4]; oral 30 mg/kg,0%
same,"% mice scored above 3 in clinical dermatitis exam, Day 26",[4]; oral 30 mg/kg,0%
same,"% mice scored above 3 in clinical dermatitis exam, Day 28",[4]; oral 30 mg/kg,0%
same,% animal-days >=2,[4]; topical 0.01% in sesame oil,14.4%
same,% animal-days >=3,[4]; topical 0.01% in sesame oil,0.0%
same,"% mice scored above 2 in clinical dermatitis exam, Day 12",[4]; topical 0.01% in sesame oil,0.0%
same,"% mice scored above 2 in clinical dermatitis exam, Day 14",[4]; topical 0.01% in sesame oil,0.0%
same,"% mice scored above 2 in clinical dermatitis exam, Day 16",[4]; topical 0.01% in sesame oil,20.0%
same,"% mice scored above 2 in clinical dermatitis exam, Day 18",[4]; topical 0.01% in sesame oil,50.0%
same,"% mice scored above 2 in clinical dermatitis exam, Day 20",[4]; topical 0.01% in sesame oil,10.0%
same,"% mice scored above 2 in clinical dermatitis exam, Day 22",[4]; topical 0.01% in sesame oil,40.0%
same,"% mice scored above 2 in clinical dermatitis exam, Day 24",[4]; topical 0.01% in sesame oil,40.0%
same,"% mice scored above 2 in clinical dermatitis exam, Day 26",[4]; topical 0.01% in sesame oil,40.0%
same,"% mice scored above 2 in clinical dermatitis exam, Day 28",[4]; topical 0.01% in sesame oil,20.0%
same,"% mice scored above 2 in clinical dermatitis exam, Day 30",[4]; topical 0.01% in sesame oil,10.0%
same,% animal-days >=2,[4]; topical 0.1% in sesame oil,16.3%
same,% animal-days >=3,[4]; topical 0.1% in sesame oil,0.0%
same,"% mice scored above 2 in clinical dermatitis exam, Day 12",[4]; topical 0.1% in sesame oil,7.1%
same,"% mice scored above 2 in clinical dermatitis exam, Day 14",[4]; topical 0.1% in sesame oil,10.0%
same,"% mice scored above 2 in clinical dermatitis exam, Day 16",[4]; topical 0.1% in sesame oil,20.0%
same,"% mice scored above 2 in clinical dermatitis exam, Day 18",[4]; topical 0.1% in sesame oil,80.0%
same,"% mice scored above 2 in clinical dermatitis exam, Day 20",[4]; topical 0.1% in sesame oil,60.0%
same,"% mice scored above 2 in clinical dermatitis exam, Day 22",[4]; topical 0.1% in sesame oil,40.0%
same,"% mice scored above 2 in clinical dermatitis exam, Day 24",[4]; topical 0.1% in sesame oil,30.0%
same,"% mice scored above 2 in clinical dermatitis exam, Day 26",[4]; topical 0.1% in sesame oil,10.0%
same,"% mice scored above 2 in clinical dermatitis exam, Day 28",[4]; topical 0.1% in sesame oil,0.0%
same,"% mice scored above 2 in clinical dermatitis exam, Day 30",[4]; topical 0.1% in sesame oil,0.0%
same,% animal-days >=2,[4]; topical 1.0% in sesame oil,9.7%
same,% animal-days >=3,[4]; topical 1.0% in sesame oil,0.0%
same,"% mice scored above 2 in clinical dermatitis exam, Day 12",[4]; topical 1.0% in sesame oil,10.7%
same,"% mice scored above 2 in clinical dermatitis exam, Day 14",[4]; topical 1.0% in sesame oil,20.0%
same,"% mice scored above 2 in clinical dermatitis exam, Day 16",[4]; topical 1.0% in sesame oil,10.0%
same,"% mice scored above 2 in clinical dermatitis exam, Day 18",[4]; topical 1.0% in sesame oil,70.0%
same,"% mice scored above 2 in clinical dermatitis exam, Day 20",[4]; topical 1.0% in sesame oil,30.0%
same,"% mice scored above 2 in clinical dermatitis exam, Day 22",[4]; topical 1.0% in sesame oil,10.0%
same,"% mice scored above 2 in clinical dermatitis exam, Day 24",[4]; topical 1.0% in sesame oil,0.0%
same,"% mice scored above 2 in clinical dermatitis exam, Day 26",[4]; topical 1.0% in sesame oil,0.0%
same,"% mice scored above 2 in clinical dermatitis exam, Day 28",[4]; topical 1.0% in sesame oil,0.0%
same,"% mice scored above 2 in clinical dermatitis exam, Day 30",[4]; topical 1.0% in sesame oil,0.0%
same,Concentration at which increases in NQO1 enzymatic activity were evident,[5],7.8 nM
same,inhibition at 3 µM,CYP2C9,< 50%
same,fraction unbound,[6],0.03
same,Plasma concentrations after topical administration,[7],lower plasma concentrations relative to similar oral dosing
same,"BALF cytokines, second study",[8]; 10 mg/kg daily for six days,Significant reductions in TNF-α
same,"BALF cytokines, second study",[8]; 30 mg/kg daily for six days,"significant reductions in IL-12p40, TNF-α, and RANTES"
same,"Body weight, second study","[8]; 100 mg/kg daily, starting on Day 3",significant decreases in body weight
same,"Lung NQO1 enzyme activity (with increases in total GSH), second study",[8]; 10 and 30 mg/kg,significant induction of NQO1 enzyme activity
same,"BALF pro-inflammatory markers, first study","[8]; 30, 100, or 150 mg/kg orally once daily for three days",significant reduction in IL-12p40 at all doses and in TNF-α at the 100 and 150 mg/kg doses
same,"Peak reductions in TNF-α, IL-6, and IL-12 in BALF","[8]; QD×3, LPS 1 h after last dose, BALB/c mice",50%-80%
same,Ocular tissue distribution,[9]; ocular topical administration,"highest concentrations of the compound were found in the cornea, retina, or iris"
same,Plasma concentration after ocular administration,[9]; topical to the eye once per day for five days,lower plasma concentration of RTA 408 relative to when RTA 408 is administered orally
same,"NQO1, Gst, Gsr enzyme activity in monkey liver and lung (and rodent liver)","cynomolgus monkeys; 10, 30, and 100 mg/kg, 14 days","dose-dependent increases in NQO1, Gst, and Gsr enzyme activity"
same,Clinical chemistry,cynomolgus monkeys; 14 days,Clinical chemistry data suggested no obvious toxicity
same,ALP,cynomolgus monkeys; 10 mg/kg,382 U/L
same,ALT,cynomolgus monkeys; 10 mg/kg,46 U/L
same,AST,cynomolgus monkeys; 10 mg/kg,38 U/L
same,Albumin,cynomolgus monkeys; 10 mg/kg,4 g/dL
same,BUN,cynomolgus monkeys; 10 mg/kg,27 mg/dL
same,Chol,cynomolgus monkeys; 10 mg/kg,144 mg/dL
same,Cr,cynomolgus monkeys; 10 mg/kg,0.68 mg/dL
same,Glucose,cynomolgus monkeys; 10 mg/kg,39 mg/dL
same,TG,cynomolgus monkeys; 10 mg/kg,82 mg/dL
same,Tot Bil,cynomolgus monkeys; 10 mg/kg,0.23 mg/dL
same,Tot Prot,cynomolgus monkeys; 10 mg/kg,7.2 g/dL
same,ALP,cynomolgus monkeys; 30 mg/kg,416 U/L
same,ALT,cynomolgus monkeys; 30 mg/kg,47 U/L
same,AST,cynomolgus monkeys; 30 mg/kg,43 U/L
same,Albumin,cynomolgus monkeys; 30 mg/kg,4 g/dL
same,BUN,cynomolgus monkeys; 30 mg/kg,20 mg/dL
same,Chol,cynomolgus monkeys; 30 mg/kg,122 mg/dL
same,Cr,cynomolgus monkeys; 30 mg/kg,0.58 mg/dL
same,Glucose,cynomolgus monkeys; 30 mg/kg,53 mg/dL
same,TG,cynomolgus monkeys; 30 mg/kg,64 mg/dL
same,Tot Bil,cynomolgus monkeys; 30 mg/kg,0.2 mg/dL
same,Tot Prot,cynomolgus monkeys; 30 mg/kg,7.2 g/dL
same,ALP,cynomolgus monkeys; 100 mg/kg,390 U/L
same,ALT,cynomolgus monkeys; 100 mg/kg,43 U/L
same,AST,cynomolgus monkeys; 100 mg/kg,37 U/L
same,Albumin,cynomolgus monkeys; 100 mg/kg,3.2 g/dL
same,BUN,cynomolgus monkeys; 100 mg/kg,24 mg/dL
same,Chol,cynomolgus monkeys; 100 mg/kg,93 mg/dL
same,Cr,cynomolgus monkeys; 100 mg/kg,0.55 mg/dL
same,Glucose,cynomolgus monkeys; 100 mg/kg,32 mg/dL
same,TG,cynomolgus monkeys; 100 mg/kg,61 mg/dL
same,Tot Bil,cynomolgus monkeys; 100 mg/kg,0.18 mg/dL
same,Tot Prot,cynomolgus monkeys; 100 mg/kg,6 g/dL
